# Legend:
# [1] = tested on: redroot pigweed; assay: Test Example 4: herbicidal test by upland foliage treatment; assay type: in vivo, Amaranthus retroflexus L.
# Procedure: (§1) Into each plastic pot of 120 cm^2, upland soil was filled, then seeds of barnyardgrass, crabgrass, redroot pigweed and rice flatsedge were sown, and they were grown in a greenhouse until barnyardgrass. reached 3-leaf stage. Each wettable powder prepared from the test compound in accordance with Formulation Example 3 was diluted with water to give the amount of the active ingredient corresponding to 4 kg/hectare, and the diluted solution was uniformly sprayed at an application rate of 1000 liter/hectare from the top of plants by means of a small size spray, when barnyardgrass was in the 3-leaf stage. They were grown in a greenhouse, and twenty days after the application, the herbicidal effects were evaluated in accordance with the standards as identified in Table 5.
# [2] = tested on: barnyardgrass; assay: as above; assay type: in vivo, Echinochloa crus-galli L.; parameters: key: 5: Withered; 4.5: Herbicidal effect (or phytotoxicity) in a range of 90 to 99%; 4: Herbicidal effect (or phytotoxicity) in a range of 80 to 89%; 3.5: Herbicidal effect (or phytotoxicity) in a range of 70 to 79%; 3: Herbicidal effect (or phytotoxicity) in a range of 60 to 69%; 2.5: Herbicidal effect (or phytotoxicity) in a range of 50 to 59%; 2: Herbicidal effect (or phytotoxicity) in a range of 40 to 49%; 1.5: Herbicidal effect (or phytotoxicity) in a range of 30 to 39%; 1: Herbicidal effect (or phytotoxicity) in a range of 20 to 29%; 0.5: Herbicidal effect (or phytotoxicity) in a range of 1 to 19%; 0: No herbicidal effect (or no phytotoxicity)
# Procedure: as §1
# [3] = tested on: monochoria; assay: Test Example 1: herbicidal test by water treatment in a paddy field; assay type: in vivo, Monochoria vaginalis Presl; parameters: key: 5: Withered; 4.5: Herbicidal effect (or phytotoxicity) in a range of 90 to 99%; 4: Herbicidal effect (or phytotoxicity) in a range of 80 to 89%; 3.5: Herbicidal effect (or phytotoxicity) in a range of 70 to 79%; 3: Herbicidal effect (or phytotoxicity) in a range of 60 to 69%; 2.5: Herbicidal effect (or phytotoxicity) in a range of 50 to 59%; 2: Herbicidal effect (or phytotoxicity) in a range of 40 to 49%; 1.5: Herbicidal effect (or phytotoxicity) in a range of 30 to 39%; 1: Herbicidal effect (or phytotoxicity) in a range of 20 to 29%; 0.5: Herbicidal effect (or phytotoxicity) in a range of 1 to 19%; 0: No herbicidal effect (or no phytotoxicity); conditions: evaluated thirty days after application
# Procedure: (§2) Into each porcelain pot having a diameter of 10 cm, paddy soil was filled and puddled, and seeds of barnyardgrass (Echinochloa crus-galli L.), smallflower flatsedge, monochoria and Japanese bulrush were sown, and water was filled in a-depth of 3 cm. One day later, a predetermined amount of the wettable powder prepared in Formulation Example 3 and diluted with water was dropwise applied to the surface of the water (dose of the active ingredient: 4 kg/hectare). Thereafter, they were grown in a green house. Thirty days after the application, the herbicidal effects were evaluated in accordance with the standards as identified in Table 5.
# [4] = tested on: barnyardgrass (Echinochloa crus-galli L.); assay: as above; assay type: in vivo; parameters: key: 5: Withered; 4.5: Herbicidal effect (or phytotoxicity) in a range of 90 to 99%; 4: Herbicidal effect (or phytotoxicity) in a range of 80 to 89%; 3.5: Herbicidal effect (or phytotoxicity) in a range of 70 to 79%; 3: Herbicidal effect (or phytotoxicity) in a range of 60 to 69%; 2.5: Herbicidal effect (or phytotoxicity) in a range of 50 to 59%; 2: Herbicidal effect (or phytotoxicity) in a range of 40 to 49%; 1.5: Herbicidal effect (or phytotoxicity) in a range of 30 to 39%; 1: Herbicidal effect (or phytotoxicity) in a range of 20 to 29%; 0.5: Herbicidal effect (or phytotoxicity) in a range of 1 to 19%; 0: No herbicidal effect (or no phytotoxicity); conditions: evaluated thirty days after application
# Procedure: as §2
# [5] = tested on: Japanese bulrush; assay: as above; assay type: in vivo, Scir^pus juncoides Roxb.; parameters: key: 5: Withered; 4.5: Herbicidal effect (or phytotoxicity) in a range of 90 to 99%; 4: Herbicidal effect (or phytotoxicity) in a range of 80 to 89%; 3.5: Herbicidal effect (or phytotoxicity) in a range of 70 to 79%; 3: Herbicidal effect (or phytotoxicity) in a range of 60 to 69%; 2.5: Herbicidal effect (or phytotoxicity) in a range of 50 to 59%; 2: Herbicidal effect (or phytotoxicity) in a range of 40 to 49%; 1.5: Herbicidal effect (or phytotoxicity) in a range of 30 to 39%; 1: Herbicidal effect (or phytotoxicity) in a range of 20 to 29%; 0.5: Herbicidal effect (or phytotoxicity) in a range of 1 to 19%; 0: No herbicidal effect (or no phytotoxicity); conditions: evaluated thirty days after application
# Procedure: as §2
# [6] = tested on: crabgrass; assay: Test Example 4: herbicidal test by upland foliage treatment; assay type: in vivo, Digitaria sanquinalis L.; parameters: key: 5: Withered; 4.5: Herbicidal effect (or phytotoxicity) in a range of 90 to 99%; 4: Herbicidal effect (or phytotoxicity) in a range of 80 to 89%; 3.5: Herbicidal effect (or phytotoxicity) in a range of 70 to 79%; 3: Herbicidal effect (or phytotoxicity) in a range of 60 to 69%; 2.5: Herbicidal effect (or phytotoxicity) in a range of 50 to 59%; 2: Herbicidal effect (or phytotoxicity) in a range of 40 to 49%; 1.5: Herbicidal effect (or phytotoxicity) in a range of 30 to 39%; 1: Herbicidal effect (or phytotoxicity) in a range of 20 to 29%; 0.5: Herbicidal effect (or phytotoxicity) in a range of 1 to 19%; 0: No herbicidal effect (or no phytotoxicity)
# Procedure: as §1
# [7] = active ingredient 4 kg/hectare, foliage spray 1000 liter/hectare at 3-leaf stage of barnyardgrass, twenty days after application
# [8] = dose of the active ingredient 4 kg/hectare, wettable powder applied to water surface one day after sowing
# [9] = water treatment in paddy field pot, dose of active ingredient 4 kg/hectare
# [10] = upland foliage treatment, 4 kg/hectare active ingredient, sprayed at 1000 liter/hectare at barnyardgrass 3-leaf stage, evaluated twenty days after application
structure (smiles),measurement,setting,value
"CN(C)C(=O)NOc1cc(Cl)ccc1Cl [Compound No. 1, 3-(2,5-Dichlorophenoxy)-1,1-dimethyl urea]",Herbicidal effects Redroot pigweed,[1]; [7],4 (Herbicidal effect (or phytotoxicity) in a range of 80 to 89%)
same,Herbicidal effects Barnyard-grass,[2]; [7],4 (Herbicidal effect (or phytotoxicity) in a range of 80 to 89%)
same,Herbicidal effects Monochoria,[3]; [8],5
same,Herbicidal effects Barnyard grass,[4]; [8],5
same,Herbicidal effects Japanese bulrush,[5]; [8],5
same,Herbicidal effects Crabgrass,[6]; [7],4 (Herbicidal effect (or phytotoxicity) in a range of 80 to 89%)
"CC(C)N(C)C(=O)NOc1cc(Cl)cc(Cl)c1 [Compound No. 186, 3-(3,5-Dichlorophenoxy)-1-isopropyl-1-methyl urea trichloroacetate]",Herbicidal effects Redroot pigweed,[1]; [7],2 (Herbicidal effect (or phytotoxicity) in a range of 40 to 49%)
same,Herbicidal effects Barnyard-grass,[2]; [7],5
same,Herbicidal effects Monochoria,[3]; [9],5
same,Herbicidal effects Barnyard grass,[4]; [9],5
same,Herbicidal effects Japanese bulrush,[5]; [9],5
same,Herbicidal effects Crabgrass,[6]; [7],5
"CON(C)C(=O)NOc1cc(Cl)ccc1Cl [Compound No. 242, 3-(2,5-Dichlorophenoxy)-1-methoxy-1-methyl urea]",Herbicidal effects Redroot pigweed,[1]; [10],3 (Herbicidal effect (or phytotoxicity) in a range of 60 to 69%)
same,Herbicidal effects Barnyard-grass,[2]; [10],4 (Herbicidal effect (or phytotoxicity) in a range of 80 to 89%)
same,Herbicidal effects Monochoria,[3]; [9],5
same,Herbicidal effects Barnyard grass,[4]; [9],5
same,Herbicidal effects Japanese bulrush,[5]; [9],5
same,Herbicidal effects Crabgrass,[6]; [10],5
COCCNC(=O)NOc1cc(Cl)ccc1Cl [Compound No. 243],Herbicidal effects Redroot pigweed,[1]; [10],4 (Herbicidal effect (or phytotoxicity) in a range of 80 to 89%)
same,Herbicidal effects Barnyard-grass,[2]; [10],5
same,Herbicidal effects Monochoria,[3]; [9],5
same,Herbicidal effects Barnyard grass,[4]; [9],5
same,Herbicidal effects Japanese bulrush,[5]; [9],5
same,Herbicidal effects Crabgrass,[6]; [10],4 (Herbicidal effect (or phytotoxicity) in a range of 80 to 89%)

# Source: EP0183174A2, “Substituted phenoxy urea, processes for its preparation and herbicide containing it as active ingredient” (KUMIAI CHEMICAL INDUSTRY CO., LTD., priority 1984, dated 1986)
